Data taken from patent publication US20250057997A1, “CONJUGATES COMPRISING COVALENT BINDERS FOR TARGETING INTRACELLULAR PROTEINS” (RayzeBio, Inc., priority 2021, published 2025).

biological target: T1, mutant EGFR (T790M, L858R) (Homo sapiens, UniProt P00533, L858R/T790M); test: In vitro kinase assay (phage/DNA-tagged kinase competition binding, qPCR readout), mutant EGFR; conditions: EGFR construct R669 to V1011; 11-point 3-fold dilution series; 1 hour at room temperature
T1 construct: The EGFR constructs span amino acids R669 to V1011 of the EGFR protein; made in house; host or cells: E. coli derived from BL21 (T7 phage) for most assays; remaining kinases in HEK-293 cells
T1 sequence (P00533 669-1011 T790M/L858R): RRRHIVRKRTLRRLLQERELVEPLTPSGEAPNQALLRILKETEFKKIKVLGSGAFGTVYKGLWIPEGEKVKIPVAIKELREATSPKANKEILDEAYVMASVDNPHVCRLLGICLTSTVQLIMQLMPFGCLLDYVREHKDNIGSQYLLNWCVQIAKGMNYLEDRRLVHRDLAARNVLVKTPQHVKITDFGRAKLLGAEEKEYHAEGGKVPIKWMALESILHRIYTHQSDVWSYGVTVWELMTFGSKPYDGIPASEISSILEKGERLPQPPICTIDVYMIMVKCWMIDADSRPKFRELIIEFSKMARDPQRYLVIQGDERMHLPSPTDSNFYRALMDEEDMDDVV
Procedure: For most assays, kinase-tagged T7 phage strains were prepared in an E. coli host derived from the BL21 strain. For the EGFR assays, wild-type EGFR, or mutant EGFR (T790M, L858R) were utilized. The EGFR constructs span amino acids R669 to V1011 of the EGFR protein. E. coli were grown to log-phase and infected with T7 phage and incubated with shaking at 32° C. until lysis. The lysates were centrifuged and filtered to remove cell debris. The remaining kinases were produced in HEK-293 cells and subsequently tagged with DNA for qPCR detection. Streptavidin-coated magnetic beads were treated with biotinylated small molecule ligands for 30 minutes at room temperature to generate affinity resins for kinase assays. The liganded beads were blocked with excess biotin and washed with blocking buffer (SeaBlock (Pierce), 1% BSA, 0.05% Tween 20, 1 mM DTT) to remove unbound ligand and to reduce non-specific binding. Binding reactions were assembled by combining kinases, liganded affinity beads, and test compounds in 1× binding buffer (20% SeaBlock, 0.17×PBS, 0.05% Tween 20, 6 mM DTT). Test compounds were prepared as 111× stocks in 100% DMSO. Kds were determined using an 11-point 3-fold compound dilution series with three DMSO control points. All compounds for Kd measurements are distributed by acoustic transfer (non-contact dispensing) in 100% DMSO. The compounds were then diluted directly into the assays such that the final concentration of DMSO was 0.9%. All reactions performed in polypropylene 384-well plate. Each was a final volume of 0.02 ml. The assay plates were incubated at room temperature with shaking for 1 hour and the affinity beads were washed with wash buffer (1×PBS, 0.05% Tween 20). The beads were then re-suspended in elution buffer (1×PBS, 0.05% Tween 20, 0.5 μM nonbiotinylated affinity ligand) and incubated at room temperature with shaking for 30 minutes. The kinase concentration in the eluates was measured by qPCR.

| Structure (SMILES) | Kd |
| --- | --- |
| C=CC(=O)N[C@@H]1CN(c2nc(Nc3cn(CCCCCNC(=O)CN4CCN(CC(=O)O)CCN(CC(=O)O)CCN(CC(=O)O)CC4)nc3OC)c3ncn(C)c3n2)C[C@H]1F [Compound 002, 2-[4,7-bis(carboxymethyl)-10-[2-[5-[4-[[2-[(3R,4R)-3-fluoro-4-(prop-2-enoylamino)pyrrolidin-1-yl]-9-methyl-purin-6-yl]amino]-3-methoxy-pyrazol-1-yl]pentylamino]-2-oxo-ethyl]-1,4,7,10-tetrazacyclododec-1-yl]acetic acid] | < 1 nM |

same assay, conditions: ratio of Kd EGFR (WT) to Kd EGFR (L858R, T790M) double mutant

| Structure (SMILES) | Binding Affinity ratio of WT/DM |
| --- | --- |
| C=CC(=O)N[C@@H]1CN(c2nc(Nc3cn(CCCNC(=O)CN4CCN5CCN6CCN(CC4)CC(=O)[O][Lu]([O]C(=O)C5)[O]C(=O)C6)nc3OC)c3ncn(C)c3n2)C[C@H]1F [Compound 001-Lu] | A (4 < A ≤ 25) |
| C=CC(=O)N[C@@H]1CN(c2nc(Nc3cn(CCCCCNC(=O)CN4CCN(CC(=O)O)CCN(CC(=O)O)CCN(CC(=O)O)CC4)nc3OC)c3ncn(C)c3n2)C[C@H]1F [Compound 002, 2-[4,7-bis(carboxymethyl)-10-[2-[5-[4-[[2-[(3R,4R)-3-fluoro-4-(prop-2-enoylamino)pyrrolidin-1-yl]-9-methyl-purin-6-yl]amino]-3-methoxy-pyrazol-1-yl]pentylamino]-2-oxo-ethyl]-1,4,7,10-tetrazacyclododec-1-yl]acetic acid] | A (4 < A ≤ 25) |
| C=CC(=O)N[C@@H]1CN(c2nc(Nc3cn(CCCCCNC(=O)CN4CCN5CCN6CCN(CC4)CC(=O)[O][Lu]([O]C(=O)C5)[O]C(=O)C6)nc3OC)c3ncn(C(C)(C)C)c3n2)C[C@H]1F [Compound 004-Lu] | B (25 < B ≤ 100) |
| C=CC(=O)N[C@@H]1CN(c2nc(Nc3cn(CCCCCNC(=O)CN4CCN5CCN6CCN(CC4)CC(=O)[O][Lu]([O]C(=O)C5)[O]C(=O)C6)nc3CC)c3ncn(C(C)(C)C)c3n2)C[C@H]1F [Compound 005-Lu] | C (100 < C ≤ 1000) |
| C=CC(=O)N1C[C@H](COc2nc(Nc3cnn(CCCCCNC(=O)CN4CCN5CCN6CCN(CC4)CC(=O)[O][Lu]([O]C(=O)C5)[O]C(=O)C6)c3)nc3[nH]cc(Cl)c23)[C@@H](OC)C1 [Compound 007-Lu, N-[5-[4-[[5-chloro-4-[[(3R,4R)-4-methoxy-1-prop-2-enoyl-pyrrolidin-3-yl]methoxy]-7H-pyrrolo[2,3-d]pyrimidin-2-yl]amino]pyrazol-1-yl]pentyl]-2-(3,16,19-trioxo-2,17,18-trioxa-5,8,11,14-tetraza-1λ3-lutetatricyclo[9.6.3.25,14]docosan-8-yl) acetamide] | C (100 < C ≤ 1000) |
